{"source": "patent US9738932B2", "about": "“Biomarkers for cardiovascular side-effects induced by cox-2 inhibitory compounds” (FIRALIS SAS, priority 2005, dated 2017)", "test_system": "mRNA expression in cardiovascular tissues", "details": "cynomolgus monkey, in vivo, 2 weeks"}
{"smiles": "Cc1ccc(-c2cc(C(F)(F)F)nn2-c2ccc(S(N)(=O)=O)cc2)cc1", "note": "[Celebrex]", "values": [{"measurement": "CYP1B1 (202436_s_at) avg fold change vs control", "value": 1.0, "unit": "fold"}, {"measurement": "CYP3A5 (214234_s_at) avg fold change vs control", "value": 1.3, "unit": "fold"}, {"measurement": "CYP11B1 (214630_at) avg fold change vs control", "value": 1.1, "unit": "fold"}, {"measurement": "ECM1 (209365_s_at) avg fold change vs control", "value": 0.9, "unit": "fold"}, {"measurement": "F2RL1 (206429_at) avg fold change vs control", "value": 1.1, "unit": "fold"}, {"measurement": "F13A1 (203305_at) avg fold change vs control", "value": 0.9, "unit": "fold"}, {"measurement": "FCGR1A (214511_x_at) avg fold change vs control", "value": 1.1, "unit": "fold"}, {"measurement": "G1P2 (205483_s_at) avg fold change vs control", "value": 1.4, "unit": "fold"}, {"measurement": "HCA127 (220040_x_at) avg fold change vs control", "value": 1.0, "unit": "fold"}, {"measurement": "HCK (208018_s_at) avg fold change vs control", "value": 1.4, "unit": "fold"}, {"measurement": "HFE (210864_x_at) avg fold change vs control", "value": 1.1, "unit": "fold"}, {"measurement": "HFE (211329_x_at) avg fold change vs control", "value": 0.7, "unit": "fold"}, {"measurement": "HFE (211332_x_at) avg fold change vs control", "value": 0.8, "unit": "fold"}, {"measurement": "HFE (211863_x_at) avg fold change vs control", "value": 0.9, "unit": "fold"}, {"measurement": "HFE (211866_x_at) avg fold change vs control", "value": 0.9, "unit": "fold"}, {"measurement": "HHL (203020_at) avg fold change vs control", "value": 1.4, "unit": "fold"}, {"measurement": "HLA-A (211528_x_at) avg fold change vs control", "value": 1.1, "unit": "fold"}, {"measurement": "HLA-A (211529_x_at) avg fold change vs control", "value": 1.2, "unit": "fold"}, {"measurement": "HLA-A (211530_x_at) avg fold change vs control", "value": 1.5, "unit": "fold"}, {"measurement": "HLA-A (215313_x_at) avg fold change vs control", "value": 1.2, "unit": "fold"}, {"measurement": "HLA-B (208729_x_at) avg fold change vs control", "value": 1.1, "unit": "fold"}, {"measurement": "HLA-B (209140_x_at) avg fold change vs control", "value": 1.1, "unit": "fold"}, {"measurement": "HLA-B (211911_x_at) avg fold change vs control", "value": 1.2, "unit": "fold"}, {"measurement": "HLA-C (208812_x_at) avg fold change vs control", "value": 1.2, "unit": "fold"}, {"measurement": "HLA-C (214459_x_at) avg fold change vs control", "value": 1.3, "unit": "fold"}, {"measurement": "HLA-C (216526_x_at) avg fold change vs control", "value": 1.2, "unit": "fold"}, {"measurement": "HLA-DMB (203932_at) avg fold change vs control", "value": 1.4, "unit": "fold"}, {"measurement": "HLA-DQA1 (212671_s_at) avg fold change vs control", "value": 2.1, "unit": "fold"}, {"measurement": "HLA-DQB1 (209823_x_at) avg fold change vs control", "value": 2.0, "unit": "fold"}, {"measurement": "HLA-DQB1 (211654_x_at) avg fold change vs control", "value": 2.0, "unit": "fold"}, {"measurement": "HLA-DQB2 (212998_x_at) avg fold change vs control", "value": 1.9, "unit": "fold"}, {"measurement": "HLA-DRA (208894_at) avg fold change vs control", "value": 1.3, "unit": "fold"}, {"measurement": "HLA-DRA (210982_s_at) avg fold change vs control", "value": 1.5, "unit": "fold"}, {"measurement": "HLA-DRB3 (209312_x_at) avg fold change vs control", "value": 1.5, "unit": "fold"}, {"measurement": "HLA-DRB6 (217362_x_at) avg fold change vs control", "value": 1.4, "unit": "fold"}, {"measurement": "HLA-E (200905_x_at) avg fold change vs control", "value": 1.1, "unit": "fold"}, {"measurement": "HLA-E (217456_x_at) avg fold change vs control", "value": 1.2, "unit": "fold"}, {"measurement": "HLA-F (204806_x_at) avg fold change vs control", "value": 1.2, "unit": "fold"}, {"measurement": "HLA-F (221875_x_at) avg fold change vs control", "value": 1.0, "unit": "fold"}, {"measurement": "ICAM1 (202638_s_at) avg fold change vs control", "value": 0.8, "unit": "fold"}, {"measurement": "ICAM1 (215485_s_at) avg fold change vs control", "value": 1.1, "unit": "fold"}, {"measurement": "ICSBP1 (204057_at) avg fold change vs control", "value": 1.6, "unit": "fold"}, {"measurement": "IFI27 (202411_at) avg fold change vs control", "value": 3.3, "unit": "fold"}, {"measurement": "IFI30 (201422_at) avg fold change vs control", "value": 1.3, "unit": "fold"}, {"measurement": "IFI44 (214453_s_at) avg fold change vs control", "value": 1.3, "unit": "fold"}, {"measurement": "IFIT1 (203153_at) avg fold change vs control", "value": 0.8, "unit": "fold"}, {"measurement": "IFIT2 (217502_at) avg fold change vs control", "value": 1.1, "unit": "fold"}, {"measurement": "IFIT4 (204747_at) avg fold change vs control", "value": 0.8, "unit": "fold"}, {"measurement": "IFITM2 (201315_x_at) avg fold change vs control", "value": 1.0, "unit": "fold"}, {"measurement": "IFITM3 (212203_x_at) avg fold change vs control", "value": 1.1, "unit": "fold"}, {"measurement": "IGF1 (209541_at) avg fold change vs control", "value": 0.9, "unit": "fold"}, {"measurement": "IGFBP4 (201508_at) avg fold change vs control", "value": 0.6, "unit": "fold"}, {"measurement": "IL1A (208200_at) avg fold change vs control", "value": 0.4, "unit": "fold"}, {"measurement": "IL2RG (204116_at) avg fold change vs control", "value": 3.8, "unit": "fold"}, {"measurement": "IL27RA (205926_at) avg fold change vs control", "value": 1.1, "unit": "fold"}, {"measurement": "INDO (210029_at) avg fold change vs control", "value": 1.6, "unit": "fold"}, {"measurement": "INPP5D (203332_s_at) avg fold change vs control", "value": 1.6, "unit": "fold"}, {"measurement": "ITGB2 (202803_s_at) avg fold change vs control", "value": 1.1, "unit": "fold"}, {"measurement": "JAK1 (214377_s_at) avg fold change vs control", "value": 0.9, "unit": "fold"}, {"measurement": "KLKB1 (206541_at) avg fold change vs control", "value": 1.1, "unit": "fold"}, {"measurement": "LCK (204890_s_at) avg fold change vs control", "value": 3.2, "unit": "fold"}, {"measurement": "LCP2 (205270_s_at) avg fold change vs control", "value": 1.9, "unit": "fold"}, {"measurement": "LILRB1 (207857_at) avg fold change vs control", "value": 1.0, "unit": "fold"}, {"measurement": "LILRB1 (211100_x_at) avg fold change vs control", "value": 1.4, "unit": "fold"}, {"measurement": "LILRB3 (208594_x_at) avg fold change vs control", "value": 1.1, "unit": "fold"}, {"measurement": "LILRB3 (210225_x_at) avg fold change vs control", "value": 1.3, "unit": "fold"}, {"measurement": "LY86 (205859_at) avg fold change vs control", "value": 1.5, "unit": "fold"}, {"measurement": "LY96 (206584_at) avg fold change vs control", "value": 1.4, "unit": "fold"}, {"measurement": "LYN (210754_s_at) avg fold change vs control", "value": 1.5, "unit": "fold"}, {"measurement": "MAF (209348_s_at) avg fold change vs control", "value": 1.3, "unit": "fold"}, {"measurement": "PCOLCE (202465_at) avg fold change vs control", "value": 0.7, "unit": "fold"}, {"measurement": "PLCL2 (216217_at) avg fold change vs control", "value": 1.0, "unit": "fold"}, {"measurement": "PLSCR1 (202446_s_at) avg fold change vs control", "value": 1.1, "unit": "fold"}, {"measurement": "PRC1 (218009_s_at) avg fold change vs control", "value": 1.1, "unit": "fold"}, {"measurement": "PRG1 (201858_s_at) avg fold change vs control", "value": 1.0, "unit": "fold"}, {"measurement": "PRG1 (201859_at) avg fold change vs control", "value": 1.2, "unit": "fold"}, {"measurement": "PTPN22 (206060_s_at) avg fold change vs control", "value": 2.5, "unit": "fold"}, {"measurement": "PTPRC (207238_s_at) avg fold change vs control", "value": 2.5, "unit": "fold"}, {"measurement": "SOCS3 (206360_s_at) avg fold change vs control", "value": 0.9, "unit": "fold"}, {"measurement": "STAT1 (209969_s_at) avg fold change vs control", "value": 2.7, "unit": "fold"}, {"measurement": "STAT1 (AFFX-HUMISGF3A/M97935_5_at) avg fold change vs control", "value": 0.9, "unit": "fold"}, {"measurement": "STAT1 (AFFX-HUMISGF3A/M97935_MA_at) avg fold change vs control", "value": 1.3, "unit": "fold"}, {"measurement": "STAT1 (AFFX-HUMISGF3A/M97935_MB_at) avg fold change vs control", "value": 1.2, "unit": "fold"}, {"measurement": "TAPBP (208829_at) avg fold change vs control", "value": 1.1, "unit": "fold"}, {"measurement": "TCTEL1 (201999_s_at) avg fold change vs control", "value": 1.0, "unit": "fold"}, {"measurement": "TLR1 (210176_at) avg fold change vs control", "value": 1.3, "unit": "fold"}, {"measurement": "TLR2 (204924_at) avg fold change vs control", "value": 0.8, "unit": "fold"}, {"measurement": "TNFAIP3 (202643_s_at) avg fold change vs control", "value": 1.5, "unit": "fold"}, {"measurement": "TNFAIP3 (202644_s_at) avg fold change vs control", "value": 1.7, "unit": "fold"}, {"measurement": "TNFSF6 (210865_at) avg fold change vs control", "value": 1.4, "unit": "fold"}, {"measurement": "TRGC2 (211144_x_at) avg fold change vs control", "value": 1.2, "unit": "fold"}, {"measurement": "TRGC2 (216920_s_at) avg fold change vs control", "value": 1.6, "unit": "fold"}, {"measurement": "VCAM1 (203868_s_at) avg fold change vs control", "value": 1.9, "unit": "fold"}, {"measurement": "XCL1 (206366_x_at) avg fold change vs control", "value": 2.0, "unit": "fold"}, {"measurement": "XCL1 (214567_s_at) avg fold change vs control", "value": 3.5, "unit": "fold"}, {"measurement": "XLKD1 (219059_s_at) avg fold change vs control", "value": 1.5, "unit": "fold"}, {"measurement": "cig5 (213797_at) avg fold change vs control", "value": 1.3, "unit": "fold"}]}
